Patent publication US9115358B2, “Moenomycin biosynthesis-related compositions and methods of use thereof” (priority 2006, dated 2015)
“Also recorded” adds a separate entry of the source.

Columns and labels:
B. cereus = test: Antibiotic disc diffusion assay of antibacterial activity against B. cereus; type: cell-based, Bacillus cereus ATCC19637; settings: purified moe A intermediates on B. cereus reporter strain; FIG. 19, 50-200 nM per disc
Protocol: Spots 1 and 2—moe A (100 and 10 nM per disc, respectively); 3—compound 15 (100 nM); 4—compound 16 (100 nM), 5—compound 17 (100 nM), 6—compound 24 (100 nM), 7—mixture of compounds 22 and 23 (200 nM), 8—compound 11 (100 nM), 9—mixture of compounds 22 and 23 (50 nM), 10—mixture of compounds 2 and 3 (200 nM), 11—compound 1 (200 nM), 12—extract from 5 g S. lividans TK24 mycelial cake.
Moes producers S. ghanaensis ATCC14672 and S. bambergiensis NRRL-B12101 were obtained from American Type Culture Collection (“ATCC”) and the U.S. Department of Agriculture, respectively. S. lividans TK24, S. coelicolor M145 (Kieser 2000), S. cyanogenus S136 (Westrich 1999) were used in studies on moe A resistance in Streptomyces. Bacillus cereus ATCC19637 was used as a moe-sensitive test culture.
For all moe production analysis procedures, equal amounts of biomass (wet weight) and fermentation medium were used. […]
Heterologous expression of moe biosynthetic genes in S. lividans TK24 leads to the production of moe derivatives and intermediates. […] Antibiotic disc diffusion assay, LC-MS, MS/MS and determination of accurate mass spectra of moenomycins were carried out as described in (Ostash 2007). ^1H NMR spectra of compound 11 (FIG. 4) were recorded on a Varian Inova 500 (500 MHz) instrument in D2O (4.80 ppm). […]

bacteria = settings: cited from earlier work

| Compound | antibacterial activity (bioactivity) in disk diffusion assay (B. cereus) | activity in vivo (biological / antibacterial activity) (bacteria) |
| --- | --- | --- |
| C=C(C/C=C(\C)CCC=C(C)C)CCC(C)(C)/C=C/CC/C(C)=C\CO[C@H](COP(=O)(O)OC1OC(C(N)=O)C(C)(O)C(OC(N)=O)C1OC1OC(COC2OC(CO)C(O)C(O)C2O)C(O)C(O)C1NC(C)=O)C(=O)O (some centres unmarked) [Compound 11] | has biological activity; also recorded: biologically active | – |
| Neryl-moenomycin | – | biologically inactive |
